Results reported in patent US20260193659A1, “METHODS FOR TREATING MONGE'S DISEASE” (The Regents of the University of California, priority 2022, published 2026).
Entries after “also recorded” stand apart in the source; their conditions may differ.

Columns and labels:
[1] = tested on: Monge's disease; details: patients; cited from earlier work
[2] = tested on: LINC02228 (HIKER); assay: KD efficiency of LINC02228 (HIKER) by ASO, qPCR; type: cell-based, human; details: CMS cells
Protocol: Locked nucleic acids (LNAs) targeting HIKER/LINC02228 and LINC00431 were designed and synthesized by Exiqon. The most efficient ASO for each LNA was initially tested in the pilot experiment with and without transfection reagent (Lipofectamine 3000. Life Technologies. L3000-008) in a dose-response experiment at a concentration of 10 nM, 25 nM, 50 nM, and 100 nM. The uptake and the effect of ASO were monitored by qPCR at various stages (iPSC stage and CD34+ cells isolated from EBs). For both lncRNAs, the optimal delivery for all the stages was at the 50 nM concentration without the transfection reagent.
(§1) CD34^+ cells were isolated from iPSC-derived EBs as follows. After 7 days of differentiation, EBs were harvested by spinning at 400 g for 10 minutes. After centrifugation, EBs were dissociated into single cells using Accutase treatment for 10 minutes and then filtered through a 60 μm cell strainer (Falcon). CD34^+ cells were isolated from this cell suspension using EasySep Human CD34 Positive Selection Kit 11 ([…] Technologies, 17856) per the manufacturer's instructions. These iPSC-derived CD34+ cells were used in subsequent qPCR and colony-forming assays.

[3] = tested on: zebrafish embryos; assay: Hemoglobin staining (o-dianisidine) of zebrafish embryos injected with csnk2b morpholino; type: in vivo, Zebrafish (Danio rerio); details: 2 dpf
Protocol: Zebrafish (Danio rerio) were raised in a circulating aquarium system on a 14-hour light/10-hour dark cycle at 28.5° C., following standard husbandry procedures.
The morpholino antisense oligo (MO) 5′-[…]-3′ (SEQ ID NO: 23) was synthesized to block the translation initiation of csnk2b, and the 5-mismatch oligo 5′-[…]-3′ (SEQ ID NO: 24) was synthesized as a specificity control (Gene Tools). For synthesizing CSNK2B rescue mRNA that is resistant to the translation blocking MO, the full-length csnk2b coding sequence with 4 base pairs of silent mutations in the MO recognition region was cloned into the pCS2-vector (Azenta Life Sciences), in which the first 24 base pairs of the CSNK2B coding sequence became 5′-[…]-3′ (SEQ ID NO: 25). The csnk2b capped mRNA was synthesized using the mMESSAGE mMACHINE Kit (Ambion, AM1340). Microinjection was performed on WT AB embryos at the 1- to 2-cell stages.
Embryos at 2 dpf were dechorionated and anesthetized with 0.016% tricaine (Fluka, A5040), followed by a 15-minute incubation in 0.6 mg/mL o-dianisidine solution (SigmaAldrich, D9143). This solution was prepared in 0.65% H2 O2 (EMD, HX0647-3), 40% ethanol (KOPTEC, 89125), and 10 mM sodium acetate (Fisher Chemical, S210-500) at room temperature. Stained embryos were washed twice with 1×PBS (Gibco, Thermo Fisher Scientific, 14200166) and then fixed in 4% paraformaldehyde (PFA) (SigmaAldrich, P6148). Hemoglobin signal was observed under a light microscope and quantified according to the area and intensity in the heart and common cardinal vein; embryos were categorized into normal, medium, and low hemoglobin levels.

[4] = tested on: CMS cells; assay: BFU-E colony forming assay with CK2 inhibitors, iPSC-derived CD34+ cells under hypoxia; type: cell-based, human; details: 5% O2, 14 days, TBB 25 μM, 50 µM, 100 μM, CX4945 2.5, 5, 10 μM
Protocol: as §1
CD34^+ cells used in this assay were derived from iPSC-generated EBs as described herein. CD34^+ cells were plated at a density of 10^5 cells per 35 mm dish combined with MethoCult H4034 Optimum Media ([…] Technologies, 04044) and 2% FBS. Dishes were incubated at 37° C. in an incubator with 5% CO2 and 5% O2 for 14 days, at which time colonies were scored for BFU-E and CFU-granulocyte, erythrocyte, monocyte, megakaryocyte (CFU-GEMM).
TBB (catalog ab120988) and CX4945 (catalog S2248) were purchased from Abcam and Selleckcam, respectively. Dose-response experiments were performed with the inhibitors using the following concentrations in the colony forming assays using iPSC-derived CD34^+ cells as described herein: TBB (25 μM, 50 µM, and 100 μM) and CX4945 (2.5 μM, 5 μM, and 10 μM).

CC(=O)Nc1nnc(S(N)(=O)=O)s1 [Acetazolamide]
clinical response in Monge's disease [1]: mild response and relief of symptoms

ASO-1: LNA gapmer ASO targeting HIKER/LINC02228, SEQ ID NO 1: G*G*T*T*G*C*T*T*T*C*A*G*G*C*C*C*C*T*T*A (antisense GGTTGCTTTCAGGCCCCTTA; all phosphorothioate, sugars by position and methylation of C not given here; LNA gapmer)
KD efficiency, ranking among the 3 ASOs [2]: highest KD efficiency

MO: morpholino antisense oligo 5′-CGACACTTCCTCTGAGCTACTCATG-3′ (SEQ ID NO: 23) blocking translation initiation of csnk2b (all phosphorodiamidate morpholino (PMO))
hemoglobin levels ([3]; 1 ng dose): minimal impact on hemoglobin levels | hemoglobin versus controls ([3]; 3 ng and 5 ng MO dosage): remarkable decrease in hemoglobin | morphants showing moderate or low iron staining ([3]; 3 ng and 5 ng MO): more than 97% | hemoglobin, dose dependence ([3]; 1, 3 or 5 ng): dose-dependent loss of hemoglobin

Brc1c(Br)c(Br)c2n[nH]nc2c1Br [TBB]
BFU-E colonies (erythroid colony numbers) [4]: significant changes were observed in the colony numbers in a dose-dependent manner; also recorded: decreases BFU-E colonies in CMS cells in a dose-dependent manner
